# Measurements: US10214746B2, “Soybean transformation method” (Dow AgroSciences LLC, priority 2013, dated 2019)
# “Also recorded” adds a separate entry of the source.
# Experiments:
# [1] = tested on: transgenic soybean shoots; experiment: Root development and yellow fluorescence protein expression of pDAB9381-transformed soybean shoots on rooting medium with glufosinate; type: in vivo, Glycine max
# Procedure: The transformed soybean seeds were cultivated using the tissue culture protocol as described in U.S. Filing No. 61/739,349, herein incorporated by reference. Co-cultivation of the soybean plant seeds with an Agrobacterium strain containing the pDAB9381 plasmid was carried out for 5 days on co-cultivation medium covered with a filter paper. After 5 days of incubation on the co-cultivation medium, the explants were washed in liquid Shoot Induction (SI) medium for about 5 to 10 minutes. The explants were then cultured onto Shoot Induction-I (SI-I) medium. The soybean seeds were oriented so the flat side of the soybean seed faced up and the nodal end of the soybean cotyledon was imbedded into the SI-I medium. After 2 weeks of culture at 24° C. with an 18 hour photoperiod, the explants were transferred to the Shoot Induction-II (SI-II) medium supplemented with 6 mg/L glufosinate. After 2 weeks on SI-II medium, the cotyledons were removed from the explants, a flush shoot pad was excised by making a cut at the base of the cotyledon, and the isolated shoot was transferred to the Shoot Elongation (SE) medium. The cultures were transferred to fresh SE medium every two weeks. PETRI™ dishes were not wrapped with filter paper throughout the shoot induction and shoot elongation stages. Lighting sources were provided with an illumination of 80-90 μmoles s-1m-2 for the transformed tissues during shoot induction and shoot elongation.
# The elongated shoots were dipped in 1 mg/L indole 3-butyric acid (IBA) for about 1 to 3 minutes to promote rooting prior to transferring of the isolated shoots to rooting medium (MS salts, B5 vitamins, 28 mg/L ferrous, 38 mg/L Na^2EDTA, 20 g/L sucrose and 0.59 g/L MES, 50 mg/L asparagine, 100 mg/L L-pyroglutamic acid, and 7 g/L NOBLE™ agar, pH 5.6) in phyta trays. A selection agent of glufosinate at a concentration of 1 mg/L was incorporated into the rooting medium for a subset of the transformation experiments.
# Following culturing in the rooting medium at 24° C., with an 18 hour photoperiod, for 1-2 weeks, the soybean shoots that produced healthy, viable roots were transferred to soil. The soybean shoots comprising healthy, viable roots were placed in soil which was contained in an open plastic sundae cup. The plastic sundae cups containing the transferred soybean shoots comprising roots were placed in a CONVIRON™ for acclimatization of soybean plantlets. The rooted soybean plantlets were acclimated in the open sundae cups for several weeks before the plantlets were transferred to the greenhouse.
# Incorporation of a section agent comprising glufosinate in soybean tissue culture rooting medium was tested to reduce the formation of non-germline, chimeric soybean transformation events and escapes. Following Agrobacterium-mediated transformation of soybean (cv. Maverick) with the binary vector, pDAB9381, soybean shoots were regenerated and cultured onto rooting medium that contained a selection agent comprising glufosinate. After root development was initiated on the rooting media comprising glufosinate, the roots were tested for transgene expression (yellow fluorescence protein).
# A total of 531 transgenic soybean shoots were produced using the transformation method described above and transferred onto rooting medium containing the selection agent glufosinate. […] (see Table 2). A correlation was observed between yellow fluorescence protein transgene expression and viable, white root formation, wherein a significant majority of the viable, white roots expressed the yellow fluorescence protein transgene in root tissues. (see FIG. 2, FIG. 3, and FIG. 5). Microscopy results confirmed that about 92% of the soybean plants produced from rooting medium comprising a selection agent were transgenic as these soybean plants expressed the yellow fluorescence protein transgene. (see FIG. 2, FIG. 3, and FIG. 5).
# [2] = tested on: transgenic soybean events; experiment: Heritability analysis of transgenic soybean events produced on rooting medium comprising glufosinate (T1 plants sprayed with glufosinate); type: in vivo
# Source text: A total of 153 transgenic soybean events were isolated and grown to maturity. These soybean events were self-fertilized to produce seed that was obtained and analyzed for heritability. All of the 153 transgenic soybean events were confirmed to contain the yellow fluorescent protein and phosphinothricin acetyltransferase transgenes via molecular analysis in the parental T0 soybean plants. For each of the 153 transgenic soybean events, 15 seeds were obtained and germinated in soil under conventional green house conditions. The transgenic soybean plants were grown to the V1 stage of development and were sprayed with 411 g ae/ha glufosinate, which was used as the exemplary selection agent in this example. After treatment with glufosinate, the soybean plants were observed and graded as resistant or susceptible to glufosinate. The transgenic soybean events that produced at least one T1 seedling were determined to be a heritable event.
# [3] = tested on: non-transgenic soybean shoots; experiment: Growth response (rooting) of non-transgenic soybean shoots on rooting medium with glufosinate; type: in vivo
# Procedure: Growth response studies to varying concentrations of selection agent were conducted using non-transgenic soybean shoots. In this example, glufosinate was used as the exemplary selection agent. Soybean shoots were regenerated from split-seed soybean tissues and cultivated on Shoot Induction medium until shoots had developed and were ready for transfer to rooting medium. Several different concentrations of glufosinate (0, 0.25 mg/L, 0.50 mg/L, 1 mg/L, 2 mg/L, 3 mg/L, 4 mg/L, 5 mg/L, and 6 mg/L) were incorporated into rooting medium (MS salts, B5 vitamins, 28 mg/L ferrous, 38 mg/L Na^2EDTA, 20 g/L sucrose and 0.59 g/L MES, 50 mg/L asparagine, 100 mg/L L-pyroglutamic acid, and 7 g/L NOBLE™ agar, pH 5.6) to determine which concentrations of glufosinate inhibited root development. […] However, 90% and 50% of the soybean shoots cultivated in rooting medium containing glufosinate at concentrations of 0.25 mg/L and 0.5 mg/L, respectively, produced roots. (see Table 1). The effective glufosinate concentration for inhibition of soybean shoot growth and development was determined to be at least 1.0 mg/L of glufosinate. Higher concentrations of glufosinate (e.g., concentrations greater than 1.0 mg/L) were effective in inhibiting root development.
# [4] = tested on: soybean shoots; experiment: Rooting medium selection of aad-12 transformed soybean shoots with 2,4-D; type: in vivo, soybean (cv. Maverick); conditions: aad-12 transgene; rooting medium with 2,4-D about 2 to 120 mg/L
# Procedure: Transformed soybean seed can be cultivated using a modified tissue culture protocol as described in U.S. Filing No. 61/739,349, herein incorporated by reference, wherein the selective agent is 2,4-D. Co-cultivation of the soybean plant seeds with Agrobacterium, can be carried out for 5 days on co-cultivation medium covered with a filter paper. After 5 days of incubation on the co-cultivation medium, the explants can be washed in liquid Shoot Induction (SI) medium for about 5 to 10 minutes. The explants can then be cultured onto Shoot Induction-I (SI-I) medium. The soybean seeds are oriented so the flat side of the soybean seed face up and the nodal end of the soybean cotyledon is imbedded into the SI-I medium. After 2 weeks of culture at 24° C. with an 18 hour photoperiod, the explants can be transferred to the Shoot Induction-II (SI-II) medium supplemented with 2 to 120 mg/L 2,4-D. After 2 weeks on SI-II medium, the cotyledons can be removed from the explants, wherein a flush shoot pad is excised by making a cut at the base of the cotyledon, and the isolated shoot is transferred to the Shoot Elongation (SE) medium. The cultures can be transferred to fresh SE medium every two weeks. PETRI™ dishes may not be wrapped with filter paper throughout the shoot induction and shoot elongation stages. […]
# [5] = glufosinate 1 mg/L in rooting medium, 531 plants
# [6] = root tissues, glufosinate 1 mg/L in rooting medium, 531 plants
# [7] = rooting medium comprising glufosinate (1 mg/L)
# [8] = Brown/Black Roots on glufosinate rooting medium, 76 events
# [9] = Total, 153 T1 events, T1 sprayed with 411 g ae/ha glufosinate
# [10] = White Roots on glufosinate rooting medium, 77 events
# [11] = glufosinate at least 1 mg/L in rooting medium
smiles,measurement,setting,value
"CP(=O)(O)CCC(N)C(=O)O (racemic) [glufosinate, DL-phosphinothricin]","Number of Plants with Unhealthy, Brown/Black Roots",[1]; [5],212
same,"Number of Plants with Viable, White Roots",[1]; [5],319
same,"Plants with Unhealthy, Brown/Black Roots (%)",[1]; [5],40%
same,"Plants with Viable, White Roots (%)",[1]; [5],60%
same,soybean plants produced from rooting medium comprising a selection agent that were transgenic (expressed the yellow fluorescence protein transgene),"[1]; microscopy, shoots with viable, white roots",about 92%
same,Number of Plants with YFP Expression,[1]; [6],271
same,Number of Plants with no YFP Expression,[1]; [6],260
same,Plants with YFP Expression (%),[1]; [6],51%
same,Plants with no YFP Expression (%),[1]; [6],49%
same,root phenotype of germline transformants,[1]; [7],"produce healthy, viable roots; also recorded: healthy viable roots were produced"
same,root phenotype of non-germline or chimeric transformants,[1]; [7],"either do not form roots or develop brown/black roots; also recorded: do not produce viable roots; also recorded: (1) no roots were produced; (2) roots were produced and turned brown; and, (3) roots were produced and turned black"
same,Percentage of heritable events,[2]; [8],7%
same,Percentage of non-heritable events,[2]; [8],93%
same,Percentage of heritable events,[2]; [9],48%
same,Percentage of non-heritable events,[2]; [9],52%
same,Percentage of heritable events,[2]; [10],90%
same,Percentage of non-heritable events,[2]; [10],10%
same,"advanced events with viable, healthy roots confirmed to be germline soybean transformants",[2]; [11],about 90%
same,non-germline (chimeric) events eliminated based on root phenotype (brown/black roots or no root development),[2]; [11],about 93%
same,Percentage of Shoots that Produced Roots,[3]; glufosinate 0.25 mg/L in rooting medium,90%
same,Number of Shoots Producing Roots,"[3]; glufosinate 0.25 mg/L, 10 shoots cultivated",9
same,Percentage of Shoots that Produced Roots,[3]; glufosinate 0.5 mg/L in rooting medium,50%
same,Number of Shoots Producing Roots,"[3]; glufosinate 0.5 mg/L, 10 shoots cultivated",5
same,Percentage of Shoots that Produced Roots,[3]; glufosinate 1.0 mg/L in rooting medium,0%
same,Number of Shoots Producing Roots,"[3]; glufosinate 1.0 mg/L, 30 shoots cultivated",0
same,Percentage of Shoots that Produced Roots,[3]; glufosinate 2.0 mg/L in rooting medium,0%
same,Number of Shoots Producing Roots,"[3]; glufosinate 2.0 mg/L, 30 shoots cultivated",0
same,Percentage of Shoots that Produced Roots,[3]; glufosinate 3.0 mg/L in rooting medium,0%
same,Number of Shoots Producing Roots,"[3]; glufosinate 3.0 mg/L, 30 shoots cultivated",0
same,Percentage of Shoots that Produced Roots,[3]; glufosinate 4.0 mg/L in rooting medium,0%
same,Number of Shoots Producing Roots,"[3]; glufosinate 4.0 mg/L, 25 shoots cultivated",0
same,Percentage of Shoots that Produced Roots,[3]; glufosinate 5.0 mg/L in rooting medium,0%
same,Number of Shoots Producing Roots,"[3]; glufosinate 5.0 mg/L, 25 shoots cultivated",0
same,Percentage of Shoots that Produced Roots,[3]; glufosinate 6.0 mg/L in rooting medium,0%
same,Number of Shoots Producing Roots,"[3]; glufosinate 6.0 mg/L, 25 shoots cultivated",0
same,root formation of soybean shoots,[3]; rooting media supplemented with 1 to 6 mg/L glufosinate,no root formation was observed
same,effective glufosinate concentration for inhibition of soybean shoot growth and development,"[3]; rooting medium, non-transgenic shoots",at least 1.0 mg/L
"O=C(O)COc1ccc(Cl)cc1Cl [2,4-D, 2,4-dichlorophenoxyacetic acid]","transgene expression in viable, white roots",[4],"a significant majority of the viable, white roots express the transgene in root tissues"
